Laboratory results: patent US6403794B2, “Substituted 2-amino-4-alkylamino-1,3,5-triazines as herbicides” (Bayer Aktiengesellschaft, priority 1996, dated 2002)
Like-named read-outs stand apart in the source and are kept apart here.

What was measured:
Wheat [1] = test: Post-emergence test; format: in vivo; conditions: greenhouse, 500 g of ai./ha, after three weeks
Experimental: (§1) Solvent: 5 parts by weight of acetone
(§2) Emulsifier: 1 part by weight of alkylaryl polyglycol ether
(§3) To produce a suitable preparation of active compound, 1 part by weight of active compound is mixed with the stated amount of solvent, the stated amount of emulsifier is added and the concentrate is diluted with water to the desired concentration.
(§4) Test plants which have a height of 5-15 cm are sprayed with the preparation of active compound such that the particular amounts of active compounds desired are applied per unit area. The concentration of the spray liquor is chosen so that the particular amounts of active compound desired are applied in 1000 l of water/ha.
(§5) After three weeks, the degree of damage to the plants is scored visually in % damage, in comparison to the untreated control.
(§6) 0%=no effect (like untreated control)

Echinochloa [2] = test: Post-emergence test; format: in vivo; conditions: greenhouse, 500 g of ai./ha, after three weeks
Experimental: as §1, §2, §3, §4, §5, §6

Setaria [3] = test: Post-emergence test; format: in vivo; conditions: for pest or weed control at 500 g/ha / pest or weed control at 1000 g/ha: Setaria, 504 h, read-out: degree of damage to the plants (% damage), Setaria; for pest or weed control at 500 g/ha: 500 g of ai./ha
Experimental: as §1, §2, §3, §4, §5, §6

Polygonum [4] = test: Post-emergence test; format: in vivo; conditions: greenhouse, 500 g of ai./ha, after three weeks
Experimental: as §1, §2, §3, §4, §5, §6

weeds [5] = test: Post-emergence test; format: in vivo
Experimental: as §1, §2, §3, §4, §5, §6

Solanum = test: Post-emergence test; format: in vivo; conditions: greenhouse, 500 g of ai./ha, after three weeks
Experimental: as §1, §2, §3, §4, §5, §6

Amaranthus [6] = test: Post-emergence test; format: in vivo; conditions: for pest or weed control at 500 g/ha / pest or weed control at 1000 g/ha: Amaranthus, 504 h, read-out: degree of damage to the plants (% damage), Amaranthus; for pest or weed control at 500 g/ha: 500 g of ai./ha
Experimental: as §1, §2, §3, §4, §5, §6

Ipomoea = test: Post-emergence test; format: in vivo; conditions: greenhouse, 500 g of ai./ha, after three weeks
Experimental: as §1, §2, §3, §4, §5, §6

Abutilon [7] = test: Pre-emergence test; format: in vivo; conditions: for pest or weed control at 500 g/ha / pest or weed control at 1000 g/ha: Abutilon, 504 h, read-out: degree of damage to the plants (% damage), Abutilon; for pest or weed control at 500 g/ha: 500 g of ai./ha
Experimental: as §1, §2, §3
(§7) Seeds of the test plants are sown in normal soil. After about 24 hours, the soil is watered with the preparation of active compound. The amount of water per unit area is advantageously kept constant. The concentration of active compound in the preparation is immaterial, only the application rate of active compound per unit area matters.
(§8) After three weeks, the degree of damage to the plants is scored visually in % damage in comparison to the development of the untreated control.
as §6

Wheat [8] = test: Pre-emergence test; format: in vivo; conditions: greenhouse, 500 g of ai./ha, after three weeks
Experimental: as §1, §2, §3, §7, §8, §6

Echinochloa [9] = test: Pre-emergence test; format: in vivo; conditions: greenhouse, 500 g of ai./ha, after three weeks
Experimental: as §1, §2, §3, §7, §8, §6

Polygonum [10] = test: Pre-emergence test; format: in vivo; conditions: greenhouse, 500 g of ai./ha, after three weeks
Experimental: as §1, §2, §3, §7, §8, §6

Veronica = test: Pre-emergence test; format: in vivo; conditions: greenhouse, 500 g of ai./ha, after three weeks
Experimental: as §1, §2, §3, §7, §8, §6

Datura = test: Pre-emergence test; format: in vivo; conditions: greenhouse, 500 g of ai./ha, after three weeks
Experimental: as §1, §2, §3, §7, §8, §6

weeds [11] = test: Pre-emergence test; format: in vivo
Experimental: as §1, §2, §3, §7, §8, §6

Digitaria = test: Pre-emergence test; format: in vivo; conditions: greenhouse, 500 g of ai./ha, after three weeks
Experimental: as §1, §2, §3, §7, §8, §6

Amaranthus [12] = test: Pre-emergence test; format: in vivo; conditions: for pest or weed control at 500 g/ha / pest or weed control at 1000 g/ha: Amaranthus, 504 h, read-out: degree of damage to the plants (% damage), Amaranthus; for pest or weed control at 500 g/ha: 500 g of ai./ha
Experimental: as §1, §2, §3, §7, §8, §6

Abutilon [13] = test: Post-emergence test; format: in vivo; conditions: greenhouse, 1000 g of ai./ha, after three weeks
Experimental: as §1, §2, §3, §4, §5, §6

Galium [14] = test: Post-emergence test; format: in vivo; conditions: greenhouse, 1000 g of ai./ha, after three weeks
Experimental: as §1, §2, §3, §4, §5, §6

Xanthium = test: Post-emergence test; format: in vivo; conditions: greenhouse, 1000 g of ai./ha, after three weeks
Experimental: as §1, §2, §3, §4, §5, §6

Alopecurus [15] = test: Post-emergence test; format: in vivo; conditions: greenhouse, 1000 g of ai./ha, after three weeks
Experimental: as §1, §2, §3, §4, §5, §6

Maize = test: Pre-emergence test; format: in vivo; conditions: greenhouse, 1000 g of ai./ha, after three weeks
Experimental: as §1, §2, §3, §7, §8, §6

Sinapis [16] = test: Pre-emergence test; format: in vivo; conditions: greenhouse, 1000 g of ai./ha, after three weeks
Experimental: as §1, §2, §3, §7, §8, §6

Galium [17] = test: Pre-emergence test; format: in vivo; conditions: greenhouse, 1000 g of ai./ha, after three weeks
Experimental: as §1, §2, §3, §7, §8, §6

Setaria [18] = test: Pre-emergence test; format: in vivo; conditions: greenhouse, 1000 g of ai./ha, after three weeks
Experimental: as §1, §2, §3, §7, §8, §6

Alopecurus [19] = test: Pre-emergence test; format: in vivo; conditions: greenhouse, 1000 g of ai./ha, after three weeks
Experimental: as §1, §2, §3, §7, §8, §6

Sinapis [20] = test: Post-emergence test; format: in vivo; conditions: greenhouse, 1000 g of ai./ha, after three weeks
Experimental: as §1, §2, §3, §4, §5, §6

Cyperus = test: Post-emergence test; format: in vivo; conditions: greenhouse, 1000 g of ai./ha, after three weeks
Experimental: as §1, §2, §3, §4, §5, §6

Avena fatua = test: Post-emergence test; format: in vivo; conditions: greenhouse, 1000 g of ai./ha, after three weeks
Experimental: as §1, §2, §3, §4, §5, §6

[21] = greenhouse, 1000 g of ai./ha, after three weeks

SMILES	degree of damage to the plants (% damage), Echinochloa (Echinochloa [2]) [%]	pest or weed control at 500 g/ha (Setaria [3]; greenhouse, after three weeks) [%]	degree of damage to the plants (% damage), Polygonum (Polygonum [4]) [%]	activity against weeds (weeds [5])	degree of damage to the plants (% damage), Solanum (Solanum) [%]	pest or weed control at 500 g/ha (Amaranthus [6]; greenhouse, after three weeks) [%]	degree of damage to the plants (% damage), Ipomoea (Ipomoea) [%]	activity against weeds (weeds [11])	degree of damage to the plants (% damage), Abutilon (Abutilon [13]) [%]	degree of damage to the plants (% damage), Galium (Galium [14]) [%]	degree of damage to the plants (% damage), Xanthium (Xanthium) [%]	degree of damage to the plants (% damage), Alopecurus (Alopecurus [15]) [%]	degree of damage to the plants (% damage), Galium (Galium [17]) [%]	degree of damage to the plants (% damage), Alopecurus (Alopecurus [19]) [%]	also measured
CCC(CCc1ccsc1)Nc1nc(N)nc(C(F)(F)F)n1 (stereo not shown) [Example 12]	90	95	100	strong activity	100	100	100	strong activity							degree of damage to the plants (% damage), Wheat (Wheat [1]): 10%; pest or weed control at 500 g/ha (Abutilon [7]; greenhouse, after three weeks): 100%; degree of damage to the plants (% damage), Wheat (Wheat [8]): 0%; degree of damage to the plants (% damage), Echinochloa (Echinochloa [9]): 100%; degree of damage to the plants (% damage), Polygonum (Polygonum [10]): 100%; degree of damage to the plants (% damage), Veronica (Veronica): 100%; degree of damage to the plants (% damage), Datura (Datura): 100%; degree of damage to the plants (% damage), Digitaria (Digitaria): 80%; pest or weed control at 500 g/ha (Amaranthus [12]; greenhouse, after three weeks): 100%
CCC(CCc1ccsc1)Nc1nc(N)nc(C(C)F)n1 (stereo not shown) [Example 19]	100	100	100	strong activity	100	100	100	strong activity							pest or weed control at 500 g/ha (Abutilon [7]; greenhouse, after three weeks): 100%; degree of damage to the plants (% damage), Wheat (Wheat [8]): 0%; degree of damage to the plants (% damage), Echinochloa (Echinochloa [9]): 100%; degree of damage to the plants (% damage), Polygonum (Polygonum [10]): 100%; degree of damage to the plants (% damage), Veronica (Veronica): 100%; degree of damage to the plants (% damage), Datura (Datura): 100%; degree of damage to the plants (% damage), Digitaria (Digitaria): 100%; pest or weed control at 500 g/ha (Amaranthus [12]; greenhouse, after three weeks): 100%
CCC(COc1ccccc1)Nc1nc(N)nc(C(F)(F)F)n1 (stereo not shown) [Example 4]				strong activity					100	80	100	70			degree of damage to the plants (% damage), Setaria (Setaria [3]; [21]): 100%; degree of damage to the plants (% damage), Amaranthus (Amaranthus [6]; [21]): 100%
CCC(COc1ccccc1)Nc1nc(N)nc(C(F)(F)F)n1 (stereo not shown) [Example 2]				strong activity				strong activity	100	100	100	70			pest or weed control at 1000 g/ha (Setaria [3]; [21]): 100%; pest or weed control at 1000 g/ha (Amaranthus [6]; [21]): 100%; melting point: 100 °C; degree of damage to the plants (% damage), Maize (Maize): 20%; pest or weed control at 1000 g/ha (Abutilon [7]; [21]): 80%; degree of damage to the plants (% damage), Sinapis (Sinapis [16]): 100%; pest or weed control at 1000 g/ha (Amaranthus [12]; [21]): 100%
CCC(CCc1cccs1)Nc1nc(N)nc(C(C)(C)F)n1 (stereo not shown) [Example 24]	100	80	95	strong activity	95	100	100								
CCC(CCc1cccs1)Nc1nc(N)nc(C(F)(F)F)n1 (stereo not shown) [Example 11]	80	95	100	strong activity	100	100	100								degree of damage to the plants (% damage), Wheat (Wheat [1]): 10%
CCC(CCc1ccccc1)Nc1nc(N)nc(C(F)(F)F)n1 (stereo not shown) [Example 41]				strong activity				strong activity	100	100	100	80	95	90	pest or weed control at 1000 g/ha (Setaria [3]; [21]): 100%; pest or weed control at 1000 g/ha (Amaranthus [6]; [21]): 100%; pest or weed control at 1000 g/ha (Abutilon [7]; [21]): 100%; degree of damage to the plants (% damage), Setaria (Setaria [18]): 100%; pest or weed control at 1000 g/ha (Amaranthus [12]; [21]): 100%
CCC(COc1ccc(Cl)cc1)Nc1nc(N)nc(C(F)(F)F)n1 (stereo not shown) [Example 44]				strong activity					100	80	100	80			pest or weed control at 1000 g/ha (Setaria [3]): 100%; pest or weed control at 1000 g/ha (Amaranthus [6]): 100%
CCC(CCc1ccccn1)Nc1nc(N)nc(C(C)F)n1 (stereo not shown) [Example 21]								strong activity					80	100	pest or weed control at 1000 g/ha (Abutilon [7]; [21]): 90%; degree of damage to the plants (% damage), Setaria (Setaria [18]): 90%; pest or weed control at 1000 g/ha (Amaranthus [12]; [21]): 95%
CCC(CCc1ccccc1)Nc1nc(N)nc(C(F)(F)F)n1 (stereo not shown) [Example 43]		90	100	strong activity	100	100	100		100	70	100				degree of damage to the plants (% damage), Wheat (Wheat [1]): 10%; degree of damage to the plants (% damage), Setaria (Setaria [3]; [21]): 100%; degree of damage to the plants (% damage), Amaranthus (Amaranthus [6]; [21]): 100%
CCC(CCc1ccccc1)Nc1nc(N)nc(C(F)(F)F)n1 (stereo not shown) [Example 45]				strong activity				strong activity	100	100	80	80	100	80	degree of damage to the plants (% damage), Setaria (Setaria [3]; [21]): 100%; degree of damage to the plants (% damage), Amaranthus (Amaranthus [6]; [21]): 100%; degree of damage to the plants (% damage), Abutilon (Abutilon [7]; [21]): 100%; degree of damage to the plants (% damage), Setaria (Setaria [18]): 95%; degree of damage to the plants (% damage), Amaranthus (Amaranthus [12]; [21]): 100%
CC(C)C(CCc1ccc(Cl)cc1)Nc1nc(N)nc(C(C)(C)F)n1 (stereo not shown) [Example 29]								strong activity					80	70	pest or weed control at 1000 g/ha (Abutilon [7]): 80%; pest or weed control at 1000 g/ha (Amaranthus [12]): 80%
CCC(CCc1cccs1)Nc1nc(N)nc(C(C)F)n1 (stereo not shown) [Example 23]				strong activity					100		100	90			pest or weed control at 1000 g/ha (Setaria [3]; [21]): 100%; degree of damage to the plants (% damage), Sinapis (Sinapis [20]): 100%; degree of damage to the plants (% damage), Cyperus (Cyperus): 100%; degree of damage to the plants (% damage), Avena fatua (Avena fatua): 100%; pest or weed control at 1000 g/ha (Amaranthus [6]; [21]): 100%
